The values that follow come from PubChem BioAssay AID449764 (Southern Research Specialized Biocontainment Screening …, 2010).

The assay has as its system Mycobacterium tuberculosis H37Rv growth inhibition, no glycerol. Kind of assay: Mycobacterium tuberculosis H37Rv growth inhibition, no glycerol, confirmatory dose response (AID 449764).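 For all read-outs here: growth read after 7 days of incubation.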 The settings on record: for IC90: measured here: IC90 growth inhibition.

For orientation: IC50 means the concentration that gives 50% inhibition. As usually defined, the IC90 is the concentration at which the effect reaches the 90% level. The low end stands for greater potency, the high end for weaker potency. Regarding `CCc1ccc(N=C2NC(=O)/C(=C/c3cc(OC)c(O)c(OC)c3)S2)cc1`, the IC50 is 41.1 µM and the IC90 is more than 100 µM.

As for `COc1ccc(C)cc1Nc1n[n+](-c2ccccc2)c(-c2c(Cl)cccc2Cl)s1`, the IC50 is 18.4 µM and the IC90 amounted to 24.9 µM. On the same counts, the results for `Cc1cccc(-c2oc3ccc(-c4ccc5c(c4)OCO5)cc3c2C#Cc2cncn2C)c1` are 2.86 µM and 3.23 µM. On the same counts, the results for `O=C(Nc1ccn(Cc2ccccc2F)n1)c1ccc(COc2ccccc2Cl)cc1` are 11.2 µM and 16.1 µM.

In the case of `C=CCS/C(N)=N\N=C\c1c(O)ccc2ccccc12`, the IC50 is 35.6 µM and the IC90 is 55.4 µM. Taken in the same sequence, the figures for `COc1cc(NC(=O)c2cnc(N)s2)cc(C(=O)Nc2cccc(C(F)(F)F)c2)c1` were 85.9 µM and more than 100 µM.

Consider `CS/C(Nc1cc(Cl)ccc1Cl)=C(/C#N)C(=O)c1ccco1`, for which the IC50 is 20.4 µM and the IC90 was more than 100 µM. Taken in the same sequence, the figures for `CCOC(=O)CSc1nc(N)c(C(=O)Nc2ccc(N(C)C)cc2)s1` were 4.23 µM and 9.77 µM.

Regarding `NNC(=S)NCc1ccc2c(c1)OCO2`, the IC50 is 99.3 µM and the IC90 is more than 100 µM.

Take `Cc1cccc(C(=O)NNC(=S)NC(=O)c2ccccc2)c1`: the IC50 is 1.56 µM and the IC90 was determined as 2.69 µM. Take `O=C(O)C1CC=CCC1C(=O)N1CCN(c2nc(-c3ccccc3Cl)c3cc(Br)ccc3n2)CC1` (configuration not stated): the IC50 is 43.2 µM and the IC90 was 68.8 µM. On the same counts, the results for `O=C1C(SCCO)=C(SCCO)C(=O)c2ccccc21` are 11.3 µM and 12 µM.

Consider `COc1ccc(-c2nc(NC(=O)Cn3ccc(C(F)(F)F)n3)sc2C)cc1`, for which the IC50 is 44.6 µM and the IC90 came to 50.4 µM. On to `Cc1[nH]n(-c2ccccc2)c(=O)c1C(C[N+](=O)[O-])c1ccccc1Cl` (configuration not stated), for which the IC50 is 23.4 µM and the IC90 amounted to 27.1 µM. As for `c1ccc(-c2ccccc2OCCCCn2ccnc2)cc1`, the IC50 was 23.3 µM and the IC90 came to 26.9 µM. Taken in the same sequence, the figures for `N#Cc1cccc(NC(=O)N2CCC(c3nc4c(nnn4Cc4cccc(Cl)c4)c(=O)[nH]3)CC2)c1` were 21.2 µM and 23.3 µM. Taken in the same sequence, the figures for `COC(=O)CCc1nc2c(C#N)c(-c3ccc(Cl)cc3)ccn2n1` were 2.71 µM and 5.22 µM. Taken in the same sequence, the figures for `Cc1c(C(=O)N(C)C)sc2nc(-c3ccccn3)[nH]c(=O)c12` were 19.5 µM and 31.4 µM. `CSc1nc2nc3c(c(=O)n2[nH]1)CCCC3`: the IC50 is 23.8 µM and the IC90 was more than 100 µM. Compound `Cc1sc2ncnc(N3CCC(C(=O)N(CC(C)C)c4nc5ccccc5s4)CC3)c2c1C` returned an IC90 of more than 100 µM. Same read-out and setting: then `Cc1cccc(OCC(=O)NNC(=O)c2cc3ccccc3oc2=O)c1`, with more than 100 µM.

As for `COc1ccc(NC(C)C(=O)Nc2ccc(C(C)(C)C)cc2)cc1Cl` (configuration not stated), the IC50 is 94.1 µM and the IC90 was more than 100 µM. Taken in the same sequence, the figures for `Nc1ccc(S(=O)(=O)Nc2cnc3ccccc3n2)cc1` were 23.7 µM and 27.3 µM.

In the case of `CCCc1ccc2oc(C(=O)N(C)Cc3nccs3)c(C)c2c1`, the IC50 was 45 µM and the IC90 stood at 68.3 µM. On the same counts, the results for `NC(=O)c1ccc(N=Cc2ccc([N+](=O)[O-])s2)cc1` are 16.9 µM and 19.8 µM. With `NNc1nc2ccc(Cl)cc2s1`, the IC50 is 62.4 µM and the IC90 stood at 70.6 µM. On the same counts, the results for `CC1=NN(c2ccccc2)C(=O)C1C(=O)c1ccccc1` (configuration not stated) are 50.6 µM and 78 µM. Taken in the same sequence, the figures for `CCCCN(C)C(=O)Cc1c(OC)ccc2cc(Br)ccc12` were 24.4 µM and 33.5 µM.

On to `COc1ccc(-c2c[n+]3c4n2CCCCC4=C(c2ccccc2)C3)cc1`, for which the IC50 was 63.1 µM and the IC90 stood at 78.7 µM. For `Cc1occc1-c1nnc(SCC(=O)NCCc2ccccc2)o1`, the IC50 was 16.6 µM and the IC90 was determined as 25.2 µM. On the same counts, the results for `CN=c1scc(-c2ccccc2Br)n1/N=C/c1ccc[nH]1` are 88.3 µM and 92.2 µM. On the same counts, the results for `N#Cc1c(SCC(N)=O)nsc1SCc1ccccc1Cl` are 45.8 µM and more than 100 µM. Taken in the same sequence, the figures for `Cc1ccc(Cn2c(C(CO)Nc3nc(-c4ccc(F)cc4)cs3)nc3ccccc32)cc1` (configuration not stated) were 66.4 µM and 91.8 µM. With `CC(C)(C)C(=O)N1CCN(c2ccc(NC(=O)c3ccc([N+](=O)[O-])o3)cc2)CC1`, the IC50 was less than 0.2 µM and the IC90 is 1.93 µM. Taken in the same sequence, the figures for `COc1ccc(SN=C2C(C)=CC(=O)C=C2C)cc1` were 22.4 µM and 24.9 µM. On the same counts, the results for `Cc1ccc(NC(=O)COC(=O)CCc2c[nH]c3ccccc23)cc1[N+](=O)[O-]` are 2.29 µM and 6.16 µM. Taken in the same sequence, the figures for `Cc1[nH]c2ccc(OC(F)(F)F)cc2c1CCNCc1ccc(Cl)cc1` were 14.2 µM and 18.8 µM. `COc1ccc(-c2cc(-c3ccc(OC)cc3)[nH]n2)cc1` yielded an IC90 of more than 50 µM.

`CN(CCCC1CCCC1)C(=O)CCc1nnc(-c2ccccc2)o1`: the IC50 is 16.9 µM and the IC90 stood at 28 µM. `Cc1ccc2nc(/N=C(\N)NC(=O)NC3CCCCC3)nc(C)c2c1`: the IC50 was 6.71 µM and the IC90 was found to be 16.6 µM. On to `COc1cc(NC(=O)c2cccs2)c(C(=O)OCC(=O)NCc2ccco2)cc1OC`, for which the IC50 was 34.9 µM and the IC90 was more than 100 µM. Turning to `Cc1cc(NC(=O)c2cc(-c3ccncc3)nc3c(C)cccc23)no1`, the IC50 is 93.1 µM and the IC90 is more than 100 µM. On the same counts, the results for `COC(=O)CCCCC1SCC(NC(=O)c2ccccc2)C1=O` (configuration not stated) are 36.9 µM and 49.8 µM. Taken in the same sequence, the figures for `CCc1ccc(NCc2ccc(OC)c(Cn3ccnc3)c2)cc1` were 21.5 µM and 23.7 µM. Regarding `COCCCN=C1NN=C(c2cc(C)n(Cc3ccco3)c2C)CS1`, the IC50 was 70.7 µM and the IC90 turned out to be 92.2 µM. Taken in the same sequence, the figures for `Cc1cccc2c1-c1sc(C(=O)Nc3ccccc3N3CCN(C)CC3)cc1CO2` were 24.1 µM and 27.6 µM. On the same counts, the results for `CCOC(=O)c1cnc(-n2nc(C)cc2C)nc1NNc1cc(C)nc(-c2ccccc2)n1` are 74.6 µM and 93.7 µM.

As to `Nc1n[nH]c(C2CC2)c1N=Nc1ccc(Cl)cc1`, the IC50 is 32.4 µM and the IC90 was determined as 54.3 µM. Taken in the same sequence, the figures for `Cc1ccc(N(CCC#N)C(=O)CCl)cc1C` were 5.11 µM and 8.42 µM. For `COC(=O)C(C)Oc1ccc2c(c1)O/C(=C\c1ccco1)C2=O` (configuration not stated), the IC50 was 11.3 µM and the IC90 came out at 17.2 µM. Taken in the same sequence, the figures for `CCCCCCCCNC(C)C(O)c1ccc(SC(C)C)cc1` (configuration not stated) were 25 µM and 26.5 µM.

With `CN(C)CCOc1ccc(-c2c(-c3ccsc3)sc3ccccc23)cc1`, the half-inhibitory concentration (IC50) is 15.4 µM and the IC90 amounted to 21 µM.

In the case of `CCOC(=O)COc1ccc(C2CC(C)=NN2c2ccccc2)cc1` (configuration not stated), the IC50 is 8.21 µM and the IC90 came out at 12.9 µM. Taken in the same sequence, the figures for `c1ccc(C2[C@H]3CN(CC4CCCCC4)[C@H](c4ccccc4)C34CC2(c2cccnc2)C4)cc1` (some centres not stated) were 34.2 µM and 45.1 µM. As for `O=C(c1ccc(Cl)cc1)N1N=C(c2ccccn2)CC1(O)C(F)(F)F` (configuration not stated), the IC50 was 25.7 µM and the IC90 was more than 100 µM. `O=C1c2ccccc2CC1Sc1nnc(-c2ccncc2)o1` (configuration not stated) gave an IC90 of more than 100 µM. On to `CCN(C[C@H]1N[C@@](Cc2ccccc2)(C(=O)OC)[C@H]2C(=O)N(Cc3ccccc3)C(=O)[C@@H]12)C(=O)Nc1ccc(C(F)(F)F)cc1`, for which the 50% inhibitory concentration (IC50) was 8.06 µM and the IC90 amounted to 9.81 µM. For the compound `[O-][n+]1c2ccccc2c2n1CCN1CCOC21c1ccc(Cl)cc1` (configuration not stated), the half-inhibitory concentration (IC50) was 51 µM and the IC90 was found to be 79.3 µM. Taken in the same sequence, the figures for `CCOC(=O)c1ccc(N=C2C(=S)N(c3ccc(C(=O)OCC)cc3)C(=N)N2/N=C/c2ccccc2)cc1` were 99.7 µM and more than 100 µM.

For the compound `Cc1ccc(Cn2nnnc2CN2CCC(c3nc4ccc(Cl)cc4[nH]3)CC2)cc1`, the IC50 is 31 µM and the IC90 amounted to 40.8 µM.

For the compound `CC1CCC(NC(=O)c2cc3c(s2)CCCC3)CC1` (configuration not stated), the IC50 was 67.7 µM and the IC90 is more than 100 µM. For the compound `Cc1cccc(/C=C/C(=O)c2ccc([N+](=O)[O-])o2)c1`, the IC50 is less than 0.2 µM and the IC90 is less than 0.2 µM.

`CC(=NCc1ccc2c(c1)OCO2)C1=C(O)c2ccccc2C1=O`: the IC50 is less than 0.2 µM and the 90% effect concentration (IC90) worked out at 1.4 µM. With `CCCCNC(=S)N(C)/N=C/c1ccc2c(c1)OCO2`, the IC50 was 11.8 µM and the IC90 came out at 21.6 µM. On the same counts, the results for `O=C(COC(=O)C1=COCCO1)Nc1cccc(Oc2ccccc2)c1` are 9.49 µM and 37.2 µM. On the same counts, the results for `COc1ccc(OCCCC(=O)OC(C)C(=O)Nc2ccccc2[N+](=O)[O-])cc1` (configuration not stated) are 44.9 µM and more than 100 µM. On the same counts, the results for `COc1cc(/C=N/NC(=O)COc2ccc(C)cc2)ccc1OC(=O)c1cccs1` are 25.5 µM and 30.1 µM. With `Cc1ccc(C#CC[N+]2(CC#Cc3ccc(C)cc3)CCCCC2)cc1`, the IC50 is 21.4 µM and the IC90 is 24.8 µM. On the same counts, the results for `O=C(C[n+]1ccc(C(=O)c2ccccc2)cc1)Nc1ccc(C(F)(F)F)cc1` are 23.4 µM and 26.7 µM. Taken in the same sequence, the figures for `O=[N+]([O-])c1cc(-c2ncccn2)c([N+](=O)[O-])s1` were 33.1 µM and 38.8 µM. On to `Cc1ccc(NC(=O)Cc2ccc(-c3ccccc3)cc2)nc1`, for which the IC50 was 86.6 µM and the IC90 was more than 100 µM.

Regarding `Cc1[nH]c2ccccc2c1C(=O)COC(=O)c1ccc([N+](=O)[O-])s1`, the IC50 was 1.32 µM and the IC90 stood at 3.24 µM. Taken in the same sequence, the figures for `CCOC(=O)CSc1ncnc2c1sc1nc(N3CCOCC3)c3c(c12)CCCC3` were 24.9 µM and 27.9 µM.
